# Test results reported in US20230114207A1, “THE COMBINATION OF CYCLIN DEPENDENT KINASE 7 INHIBITOR AND IMMUNOTHERAPY FOR TREATMENT OF CANCER” (Dana-Farber Cancer Institute, Inc., priority 2019, published 2023).
# How the values were obtained:
# [1] = test system: HAP1 cells expressing CDK7 wild-type (WT); test: RT-qPCR of TNF and CXCL10 in HAP1 CDK7 WT cells; assay type: cell-based, human; settings: 100 nM, 48 hr
# Method: (§1) Cell pellets were collected and then subjected to total RNA extraction using RNeasy Plus Mini Kit (QIAGEN, Cat #74136) according to the manufacturer's instructions, or using TRIzol:Chloroform phase-separation by centrifugation followed by RNA precipitation using isopropanol. The extracted RNA was reversely transcribed into cDNA using the High-Capacity RNA-to-cDNA™ Kit (Thermo Fisher Scientific, Cat #4387406) according to the manufacturer's instructions. The obtained cDNA samples were diluted and used for RT-qPCR. PowerUp™ SYBR™ Green Master Mix (Thermo Fisher Scientific, Cat #A25742) or TaqMan Gene Expression Master Mix (Life Technologies, Cat #4369514). Gene specific primers with sequences listed in Table 3 were used for PCR amplification and detection on the StepOnePlus™ Real-Time PCR System (Thermo Fisher Scientific). RT-qPCR data were normalized to Actb (mouse cells) or GUSB (human cells) and presented as fold changes of gene expression in the test sample compared to the control.
# [2] = test system: tumor-infiltrating immune cells, RPP orthotopic model; test: Immune profiling flow cytometry of tumor-bearing lung; assay type: in vivo, mouse
# Method: Mice were humanely euthanized, and mouse lungs were perfused using sterile PBS through heart perfusion from the left ventricle after BAL fluid collection. The whole lung was cut and minced into small pieces followed by digestion in collagenase D (Sigma-Aldrich) and DNase I (Sigma-Aldrich) in Hank's Balanced Salt Solution (HBSS) at 37° C. for 30 minutes. After incubation, the digested tissue was subjected to a 70 μm cell strainer (Thermo Fisher Scientific) to obtain single-cell suspensions. Separated cells were treated with 1×red blood cell (RBC) lysis buffer (BioLegend). Live cells were determined by LIVE/DEAD fixable aqua dead cell stain kit (Molecular Probes). The cell pellets were resuspended in PBS with 2% FBS for FAGS analysis. Cells were stained with cell surface markers as indicated followed by fixation/permeabilization (eBioscience). Cells were imaged on BD LSRFortessa (BD Biosciences) and analyzed using FlowJo software (Tree Star).
# [3] = test system: INSM1, ASCL1, NFIB and MYC in DMS79 and GLC16; test: RT-qPCR of super enhancer (SE)-associated genes; assay type: cell-based, human; settings: 24 hr
# Method: as §1
# [4] = test system: C-terminal domain (CTD) phosphorylation of RNA Pol II; test: Western blotting of RNA Pol II CTD phosphorylation in SCLC lines; assay type: cell-based, mouse, human; settings: 24 hr
# Method: Cells in culture were collected by centrifuging at 1,500 rpm and then washed with ice-cold PBS twice to completely remove residual medium. RIPA lysis buffer (Thermo Fisher Scientific, Cat #89900) supplemented with Halt™ Protease and Phosphatase Inhibitor Cocktail (Thermo Fisher Scientific, Cat #78440) was added to cell pellets to extract protein. Protein concentrations in lysates were measured by Pierce™ BCA Protein Assay Kit (Thermo Fisher Scientific, Cat #23225) and followed by the addition of SDS loading buffer (6×) and heated at 95° C. for 5 min. Equal amount of protein samples was subjected to 4-20% gradient gel SDS-PAGE and transferred to a nitrocellulose membrane (Bio-Rad, Cat #1704271). The membrane was blocked in Odyssey® Blocking Buffer (LI-COR, Cat #927-50003) at room temperature for 1 hour and incubated with appropriate antibodies at 4° C. overnight (Key Resources Table). Antibodies were diluted in TBST (TBS with 0.1% Tween) with 20% LI-COR Odyssey Blocking Buffer. On the next day, the membrane was washed with TBST (TBS with 0.1% Tween) four times and incubated with appropriate secondary antibodies (LI-COR, anti-Rabbit, Cat #925-32213; anti-Mouse, Cat #925-68072) at room temperature for 1 hour. Membranes were imaged using the LI-COR Odyssey® Imaging System.
# [5] = test system: RPP-MYC orthotopic model; test: Treatment study in RPP-MYC orthotopic SCLC model; assay type: in vivo, mouse
# Method: All animal studies were reviewed and approved by the Institutional Animal Care and Use Committee (IACUC) at the New York University Langone Health (NYULH) and Dana-Farber Cancer Institute (DFCI). From 6 weeks of age, mice were induced with adenovirus-Cre recombinase (Ad-Cre) by intratracheal intubation to allow cre-lox-mediated recombination of floxed Rb1, p53 and p130 alleles. For syngeneic orthotopic models, ultrasound-guided transthoracic injection was performed using 200,000 RPP631, RP or RPP-MYC cells in 30 μL PBS directly into the lung of 6 to S-week-old C57BL/6 (Jackson Laboratory, Stock No: 000664). For OT-IT cell assay, OT-I mice were purchased from the Jackson Laboratory (Stock No: 003S31). Both males and females mice were used and all mice were maintained in accordance with the respective NYULH and DFCI on the care, welfare, and treatment of laboratory animals. […]
# Animals were anesthetized with isoflurane to perform MRI of the lung field using BioSpec USR70/30 horizontal bore system (Bruker) to scan 24 consecutive sections. Tumor volumes within the whole lung were quantified using 3-D slicer software to reconstruct MRI volumetric measurements as described previously. […]
# [6] = test system: OT-I CD8^+ T cells; test: Ex vivo OT-I T cell assay; assay type: cell-based, mouse
# Method: The spleen of OT-I mice was minced with a razor and mashed through a 40 µm strainer to form a single-cell suspension. Separated cells were then treated with RBC lysis buffer and a number of 5×10^5 cells were seeded in a 96-well U-bottom plate. For conditioned medium culture assay, RPP631 cells were treated with either DMSO or YKL-5-124 for 48 hr and drug was washed off after first 6-hour treatment. Subsequently, DMSO-conditioned medium or YKL-5-124-conditioned medium were collected and added to above single-cell suspension in a 96-well U-bottom plate in the presence of Ova257-264 peptide (10 μg/ml, GenScript, Cat #RP10611) for 4 days. Alternatively, DMSO or YKL-5-124 was added directly to single-cell suspension in the presence of Ova257-264 peptide for 4 days in the T cell assay medium (complete RPMI with HEPES, sodium pyruvate, MEM nonessential amino acids and 2-mercaptethonal). T cell activation markers CD69, TNFα. and IFNγ were analyzed by flow cytometry.
# [7] = test system: Cyclin E, A, B, D in RPP631 and DMS79; test: Cyclin expression (western blotting, qRT-PCR); assay type: cell-based, mouse, human; settings: 24 hours
# Method: as §1
# Cells in culture were collected by centrifuging at 1,500 rpm and then washed with ice-cold PBS twice to completely remove residual medium. […] Protein concentrations in lysates were measured by Pierce™ BCA Protein Assay Kit (Thermo Fisher Scientific, Cat #23225) and followed by the addition of SDS loading buffer (6×) and heated at 95° C. for 5 min. […]
structure (smiles),measurement,setting,value
C=CC(=O)Nc1ccc(C(=O)Nc2n[nH]c3c2CN(C(=O)N[C@H](CN(C)C)c2ccccc2)C3(C)C)cc1 [YKL-5-124],TNF and CXCL10 expression,[1],significant increase
same,CD44^highCD62L^+ effector CD4^+ T cells (CD44^highCD62L^low for the combination),[2]; 7-day treatment,substantial increase
same,GzmB^+ CD8^+ T cells percentage,[2]; 7-day treatment,considerable but equivalent increase
same,ICOS^+ CD4^+ T cells,[2]; 7-day treatment,significantly higher frequencies
same,frequencies of total CD4^+ T cell infiltrates,[2]; 7-day treatment,no significant change
same,frequencies of total CD8^+ T cell infiltrates,[2]; 7-day treatment,no significant change
same,tumor-infiltrating CD4^+ T cells expressing Ki67,[2]; 7-day treatment,modest increase
same,percentages of tumor resident DCs (MHCII^+ CD11c^+ CD103^+),[2]; compared to control mice,significant increase
same,"expression of super enhancer (SE)-associated genes including INSM1, ASCL1, NFIB and MYC",[3],no effect
same,"C-terminal domain (CTD) phosphorylation of RNA Pol II (Ser2, Ser5)",[4],no effect
same,tumor response / tumor growth (MRI tumor volume),[5],notably delayed tumor growth
same,CD8^+ T cell activity,[6]; OT-I T cells directly treated,No significant effect
same,"percentage of CD69^+, TNFα^+ and IFNγ^+ CD8^+ T cells",[6]; YKL-5-124-conditioned medium of mouse SCLC cells vs DMSO-conditioned medium,significant increase
same,Cyclin E protein and mRNA (CCNE1) levels,[7],increase
same,"expression of Cyclins A (CCNA1), B (CCNB1), and D (CCND1)",[7],remained unchanged
